Laboratory results published in ChEMBL document CHEMBL1201862, “PubChem BioAssay data set” (2004).
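Exposure lasted 48 hours, with cells grown in 96-well plates and compounds tested at five concentrations. Here, GI50 denotes the concentration required for 50% inhibition of growth.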 Calls of active or inactive are those of the source. Rule as the data show it: active = GI50 up to about 1.1 µM and inactive = higher.

Tests used:
Experiment in all cases: NCI tumour cell line growth inhibition, 48 h
MOLT-4 = system: MOLT-4
SF-295 = system: SF-295
KM12 = system: KM12
HL-60 = system: HL-60
OVCAR-4 = system: OVCAR-4
NCI-H23 = system: NCI-H23
HCT-116 = system: HCT-116
SK-OV-3 = system: SK-OV-3
SN12C = system: SN12C
T47D = system: T47D
SK-MEL-28 = system: SK-MEL-28
UO-31 = system: UO-31
NCI-H226 = system: NCI-H226
CCRF-CEM = system: CCRF-CEM
HT-29 = system: HT-29
NCI-H460 = system: NCI-H460
MCF7 = system: MCF7
MDA-MB-435 = system: MDA-MB-435
UACC-257 = system: UACC-257
SW-620 = system: SW-620
OVCAR-8 = system: OVCAR-8
DU-145 = system: DU-145
RXF 393 = system: RXF 393
OVCAR-5 = system: OVCAR-5
SF-268 = system: SF-268
CAKI-1 = system: CAKI-1
SNB-75 = system: SNB-75
UACC-62 = system: UACC-62
NCI/ADR-RES = system: NCI/ADR-RES
MDA-N = system: MDA-N
PC-3 = system: PC-3
HCC 2998 = system: HCC 2998
SK-MEL-2 = system: SK-MEL-2
M14 = system: M14
HOP-92 = system: HOP-92
OVCAR-3 = system: OVCAR-3
BT-549 = system: BT-549
HCT-15 = system: HCT-15
SNB-19 = system: SNB-19
ACHN = system: ACHN
NCI-H522 = system: NCI-H522
TK-10 = system: TK-10
786-0 = system: 786-0
K562 = system: K562
EKVX = system: EKVX
A498 = system: A498
HOP-62 = system: HOP-62
SF-539 = system: SF-539
MDA-MB-231 = system: MDA-MB-231
Malme-3M = system: Malme-3M
RPMI-8226 = system: RPMI-8226
IGROV-1 = system: IGROV-1
LOX IMVI = system: LOX IMVI
COLO 205 = system: COLO 205
A549 = system: A549
U-251 = system: U-251
Hs-578T = system: Hs-578T
SK-MEL-5 = system: SK-MEL-5
SR = system: SR

For `CC1=C(C2=C(C)C(=O)C(=O)c3cc(C)ccc32)c2ccc(C)cc2C(=O)C1=O`, the GI50 (MOLT-4) was 0.287 µM (active), the GI50 (SF-295) was 0.194 µM (active) and the GI50 (KM12) was 0.205 µM (active). For the same compound, the GI50 (HL-60) was 0.0199 µM (active), the GI50 (OVCAR-4) was 0.221 µM (active) and the GI50 (NCI-H23) was 0.208 µM (active). For the same compound, the GI50 (HCT-116) was 0.333 µM (active), the GI50 (SK-OV-3) was 1.45 µM (inactive) and the GI50 (SN12C) was 0.197 µM (active). The GI50 (T47D) was 0.249 µM (active), the GI50 (SK-MEL-28) was 0.185 µM (active) and the GI50 (UO-31) was 0.178 µM (active). For the same compound, the GI50 (NCI-H226) was 1.9 µM (inactive), the GI50 (CCRF-CEM) was 0.152 µM (active) and the GI50 (HT-29) was 0.277 µM (active). The GI50 (NCI-H460) was 0.243 µM (active), the GI50 (MCF7) was 0.218 µM (active) and the GI50 (MDA-MB-435) was 0.201 µM (active). For the same compound, the GI50 (UACC-257) was 0.193 µM (active), the GI50 (SW-620) was 0.255 µM (active) and the GI50 (OVCAR-8) was 0.245 µM (active). For the same compound, the GI50 (DU-145) was 1.44 µM (inactive), the GI50 (RXF 393) was 0.234 µM (active) and the GI50 (OVCAR-5) was 0.199 µM (active). The GI50 (SF-268) was 0.203 µM (active), the GI50 (CAKI-1) was 0.182 µM (active) and the GI50 (SNB-75) was 0.236 µM (active). For the same compound, the GI50 (UACC-62) was 0.191 µM (active), the GI50 (NCI/ADR-RES) was 0.274 µM (active) and the GI50 (MDA-N) was 0.187 µM (active). The GI50 (PC-3) was 0.298 µM (active), the GI50 (HCC 2998) was 0.155 µM (active) and the GI50 (SK-MEL-2) was 0.313 µM (active). The GI50 (M14) was 0.182 µM (active), the GI50 (HOP-92) was 0.174 µM (active) and the GI50 (OVCAR-3) was 0.153 µM (active). For the same compound, the GI50 (BT-549) was 0.19 µM (active), the GI50 (HCT-15) was 0.278 µM and the GI50 (SNB-19) was 0.15 µM (active). The GI50 (ACHN) was 0.189 µM (active), the GI50 (NCI-H522) was 0.21 µM (active) and the GI50 (TK-10) was 0.64 µM (active). The GI50 (786-0) was 0.318 µM (active), the GI50 (K562) was 0.185 µM (active) and the GI50 (EKVX) was 0.28 µM (active). The GI50 (A498) was 1.59 µM (inactive), the GI50 (HOP-62) was 0.451 µM (active) and the GI50 (SF-539) was 0.182 µM (active). The GI50 (MDA-MB-231) was 0.283 µM (active), the GI50 (Malme-3M) was 0.215 µM (active) and the GI50 (RPMI-8226) was 0.333 µM (active). The GI50 (IGROV-1) was 0.282 µM (active), the GI50 (LOX IMVI) was 0.207 µM (active) and the GI50 (COLO 205) was 0.269 µM (active). The GI50 (A549) was 1.7 µM (inactive), the GI50 (U-251) was 0.226 µM (active) and the GI50 (Hs-578T) was 0.318 µM (active). For the same compound, the GI50 (SK-MEL-5) was 0.206 µM (active).
For `CSc1nc(N)c2c(-c3ccccc3)c3c(nc2n1)CCCC3`, the GI50 (MOLT-4) was > 100 µM (inactive), the GI50 (SF-295) was > 100 µM (inactive) and the GI50 (KM12) was > 100 µM (inactive). The GI50 (HL-60) was > 100 µM (inactive), the GI50 (OVCAR-4) was 29.6 µM (inactive) and the GI50 (NCI-H23) was > 100 µM (inactive). For the same compound, the GI50 (HCT-116) was > 100 µM (inactive), the GI50 (SK-OV-3) was 87.7 µM (inactive) and the GI50 (SN12C) was > 100 µM (inactive). For the same compound, the GI50 (T47D) was > 100 µM (inactive), the GI50 (SK-MEL-28) was > 100 µM (inactive) and the GI50 (UO-31) was 3.38 µM (inactive). The GI50 (CCRF-CEM) was > 100 µM (inactive), the GI50 (HT-29) was > 100 µM (inactive) and the GI50 (NCI-H460) was > 100 µM (inactive). For the same compound, the GI50 (MCF7) was > 100 µM (inactive), the GI50 (MDA-MB-435) was > 100 µM (inactive) and the GI50 (UACC-257) was > 100 µM (inactive). For the same compound, the GI50 (SW-620) was > 100 µM (inactive), the GI50 (OVCAR-8) was 20.8 µM (inactive) and the GI50 (DU-145) was > 100 µM (inactive). For the same compound, the GI50 (RXF 393) was 29.7 µM (inactive), the GI50 (OVCAR-5) was > 100 µM (inactive) and the GI50 (SF-268) was > 10 µM (inactive). The GI50 (CAKI-1) was > 100 µM (inactive), the GI50 (SNB-75) was 31.3 µM (inactive) and the GI50 (UACC-62) was > 100 µM (inactive). For the same compound, the GI50 (NCI/ADR-RES) was 33 µM (inactive), the GI50 (MDA-N) was > 100 µM (inactive) and the GI50 (PC-3) was > 100 µM (inactive). The GI50 (M14) was > 100 µM (inactive), the GI50 (OVCAR-3) was > 100 µM (inactive) and the GI50 (BT-549) was > 100 µM (inactive). The GI50 (HCT-15) was over 100 µM, the GI50 (SNB-19) was > 100 µM (inactive) and the GI50 (ACHN) was > 100 µM (inactive). The GI50 (TK-10) was > 100 µM (inactive), the GI50 (K562) was > 100 µM (inactive) and the GI50 (EKVX) was > 100 µM (inactive). For the same compound, the GI50 (SR) was > 100 µM (inactive), the GI50 (HOP-62) was 98.4 µM (inactive) and the GI50 (SF-539) was 13.4 µM (inactive). The GI50 (MDA-MB-231) was > 100 µM (inactive), the GI50 (Malme-3M) was 82 µM (inactive) and the GI50 (RPMI-8226) was > 100 µM (inactive). The GI50 (IGROV-1) was > 100 µM (inactive), the GI50 (LOX IMVI) was > 100 µM (inactive) and the GI50 (COLO 205) was > 100 µM (inactive). The GI50 (A549) was > 100 µM (inactive), the GI50 (U-251) was > 100 µM (inactive) and the GI50 (Hs-578T) was 21.5 µM (inactive). The GI50 (SK-MEL-5) was > 100 µM (inactive).
